Data taken from patent US20210212934A1, “METHODS FOR PROVIDING LONG-LASTING ANESTHETIC EFFECT USING MICROPARTICLES” (priority 2007, published 2021).

Test: In vitro lidocaine release from microparticles (dialysis tube, water, 37° C., UV 214 nm)
Format: physicochemical
Description: Microparticle batches in an amount of 100 mg were placed in a dialysis tube (high retention seamless cellulose tubing; 23 mm×15 mm. MW cut-off 05173; Sigma Aldrich). The tube was then placed in a 30 ml glass vial containing 10 ml of deionized ultra-filtered water (Fisher Scientific). Vials were placed in a reciprocating shaking bath (Reciprocating Shaking Bath Model 50; Precision Scientific) with the temperature adjusted to 37° C., and shaking speed of 100 rpm. […] The entire 10 ml of dissolution medium was replaced with fresh medium at each sampling time interval. Dilution of 0.1 ml of the withdrawn sample was diluted to 10 ml of water in clean culture tubes of borosilicate glass (Pyrex). […] Two samples per microparticle batch were measured for drug release and triplicate samples were prepared for each release interval for UV-absorbance.

CCN(CC)CC(=O)Nc1c(C)cccc1C [lidocaine free base, lidocaine]
time of peak of release (in vitro release profile, single peak): about one | time at which release falls below minimum required level (5.6%) (in vitro release, point 10): 2.5 days | time at which drug is "exhausted" (in vitro release, time point 11): 3 days | peak of lidocaine release (in vitro, % released at peak at about one day): 18%
